Assay results taken from ChEMBL document CHEMBL4616637, “Proximicins F and G and Diproximicin A: Aminofurans from the Marine-Derived Verrucosispora sp. SCSIO 40062 by Overexpression of PPtase Genes” (J Nat Prod, 2020).
In brackets after ≈: the same amount, converted by molar mass. Activity calls are given as the source filed them. The rule behind the calls is not given here.

Tests used:
[1] = molecular target: Acetylcholinesterase (Electrophorus electricus) (UniProt O42275); assay: Inhibition of electric eel AChE at 20 uM using acetylthiocholine iodide as substrate incubated for 6 mins by Ellman's method
Chain of Acetylcholinesterase (Electrophorus electricus) (O42275 24-633 limits assumed): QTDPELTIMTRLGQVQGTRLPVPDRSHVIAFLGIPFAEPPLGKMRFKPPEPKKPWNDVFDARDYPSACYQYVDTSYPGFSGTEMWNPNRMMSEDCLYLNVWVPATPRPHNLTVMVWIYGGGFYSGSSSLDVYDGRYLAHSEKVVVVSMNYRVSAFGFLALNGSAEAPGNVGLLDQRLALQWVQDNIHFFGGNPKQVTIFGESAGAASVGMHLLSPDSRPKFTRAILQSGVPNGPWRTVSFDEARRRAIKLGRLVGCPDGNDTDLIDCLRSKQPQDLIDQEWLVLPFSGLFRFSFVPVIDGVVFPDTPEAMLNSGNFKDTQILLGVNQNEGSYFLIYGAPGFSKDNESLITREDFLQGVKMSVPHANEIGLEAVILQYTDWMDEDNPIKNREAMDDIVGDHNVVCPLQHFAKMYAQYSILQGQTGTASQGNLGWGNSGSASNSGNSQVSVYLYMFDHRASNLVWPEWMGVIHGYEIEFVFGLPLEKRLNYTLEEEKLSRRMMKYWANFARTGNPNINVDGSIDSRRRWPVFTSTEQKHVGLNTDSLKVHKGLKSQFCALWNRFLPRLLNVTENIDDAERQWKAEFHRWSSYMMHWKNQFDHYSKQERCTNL

A549 = assay: Cytotoxicity against human A549 cells assessed as reduction in cell viability after 48 hrs by SRB assay; format: functional, cell-based; settings: A549, 48 h
Bacillus subtilis = assay: Antibacterial activity against Bacillus subtilis 1064 by CLSI based susceptibility test method; format: functional
Staphylococcus aureus [2] = assay: Antibacterial activity against Staphylococcus aureus ATCC 29213 by CLSI based susceptibility test method; format: functional
Homo sapiens = species: Homo sapiens; assay: Inhibition of alpha-glucosidase (unknown origin) at 20 uM using pNPG as substrate preincubated for 15 mins followed by substrate addition and measured after 15 mins
HepG2 = assay: Cytotoxicity against human HepG2 cells assessed as reduction in cell viability after 48 hrs by SRB assay; format: functional, cell-based; settings: HepG2, 48 h
[3] = molecular target: T1, Tyrosinase (Homo sapiens) (UniProt P14679); assay: Inhibition of tyrosinase (unknown origin) at 20 uM using L-DOPA as substrate
T1 sequence (whole entry): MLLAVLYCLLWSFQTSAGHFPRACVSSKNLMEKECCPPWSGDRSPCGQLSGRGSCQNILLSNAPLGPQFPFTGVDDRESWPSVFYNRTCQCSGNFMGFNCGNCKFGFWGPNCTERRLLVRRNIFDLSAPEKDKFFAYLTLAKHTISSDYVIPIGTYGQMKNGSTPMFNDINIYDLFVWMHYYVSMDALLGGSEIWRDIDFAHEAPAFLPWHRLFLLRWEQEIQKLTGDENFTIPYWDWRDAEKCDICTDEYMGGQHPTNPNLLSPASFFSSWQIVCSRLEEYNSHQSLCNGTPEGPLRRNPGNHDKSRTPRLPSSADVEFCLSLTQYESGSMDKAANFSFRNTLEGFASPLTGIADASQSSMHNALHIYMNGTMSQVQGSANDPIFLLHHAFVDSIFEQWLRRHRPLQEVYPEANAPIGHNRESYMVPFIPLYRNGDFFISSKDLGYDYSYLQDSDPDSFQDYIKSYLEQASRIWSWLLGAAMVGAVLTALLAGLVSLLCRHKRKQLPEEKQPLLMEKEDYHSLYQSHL

Staphylococcus aureus [4] = assay: Antibacterial activity against methicillin-resistant Staphylococcus aureus shhsA1 by CLSI based susceptibility test method; format: functional
SF-268 = assay: Cytotoxicity against human SF268 cells assessed as reduction in cell viability after 48 hrs by SRB assay; format: functional, cell-based; settings: SF-268, 48 h
MCF7 = assay: Cytotoxicity against human MCF7 cells assessed as reduction in cell viability after 48 hrs by SRB assay; format: functional, cell-based; settings: MCF7, 48 h
Micrococcus luteus = assay: Antibacterial activity against Micrococcus luteus SCSIO ML01 by CLSI based susceptibility test method; format: functional

| SMILES | inhibition [1] | IC50 (A549) [µM] | MIC (Bacillus subtilis) [µg/mL] | MIC (Staphylococcus aureus [2]) [µg/mL] | inhibition (Homo sapiens) | IC50 (HepG2) [µM] | inhibition [3] | MIC (Staphylococcus aureus [4]) [µg/mL] | IC50 (SF-268) [µM] | IC50 (MCF7) [µM] | MIC (Micrococcus luteus) [µg/mL] |
| --- | --- | --- | --- | --- | --- | --- | --- | --- | --- | --- | --- |
| COC(=O)Nc1coc(C(=O)Nc2coc(C(=O)NCCc3ccc(O)cc3)c2)c1 [PROXIMICIN B] | inactive | > 10 | 8 (≈ 19.4 µM) | 16 (≈ 38.7 µM) | inactive | > 10 | inactive | 16 (≈ 38.7 µM) | > 10 | > 10 | > 64 |
| COC(=O)Nc1coc(C(=O)Nc2coc(C(=O)NCCc3ccccc3)c2)c1 | inactive | – | 32 (≈ 80.5 µM) | > 64 | inactive | – | inactive | > 64 | – | – | > 64 |
| CN[C@H](CC(C)C)C(=O)N[C@H]1C(=O)N[C@@H](CC(N)=O)C(=O)N[C@H]2C(=O)N[C@H]3C(=O)N[C@H](C(=O)N[C@H](C(=O)O)c4cc(O)cc(O)c4-c4cc3ccc4O)[C@H](O)c3ccc(c(Cl)c3)Oc3cc2cc(c3O[C@@H]2O[C@H](CO)[C@@H](O)[C@H](O)[C@H]2O[C@H]2C[C@](C)(N)[C@H](O)[C@H](C)O2)Oc2ccc(cc2Cl)[C@H]1O [VANCOMYCIN] | – | – | 0.5 (≈ 0.345 µM) | – | – | – | – | – | – | – | 0.25 (≈ 0.173 µM) |
| COc1cc(Cc2cnc(N)nc2N)cc(OC)c1OC [TRIMETHOPRIM] | – | – | 0.25 (≈ 0.861 µM) | 2 (≈ 6.89 µM) | – | – | – | > 64 | – | – | 2 (≈ 6.89 µM) |
| COC(=O)Nc1coc(C(=O)Nc2coc(C(=O)NCCc3c[nH]c4ccccc34)c2)c1 [PROXIMICIN C] | inactive | > 10 | > 64 | > 64 | inactive | > 10 | inactive | > 64 | > 10 | > 10 | > 64 |
| C[S+](C)[O-] [DIMETHYL SULFOXIDE] | – | – | > 64 | > 64 | – | – | – | > 64 | – | – | > 64 |
| COC(=O)Nc1coc(C(=O)Nc2coc(C(=O)NCCCCCNC(=O)c3cc(NC(=O)c4cc(NC(=O)OC)co4)co3)c2)c1 | inactive | > 10 | > 64 | > 64 | inactive | > 10 | inactive | > 64 | > 10 | > 10 | > 64 |
| CC1(C)S[C@@H]2[C@H](NC(=O)[C@H](N)c3ccccc3)C(=O)N2[C@H]1C(=O)O [AMPICILLIN] | – | – | 0.25 (≈ 0.715 µM) | 0.25 (≈ 0.715 µM) | – | – | – | > 64 | – | – | 0.5 (≈ 1.43 µM) |
| CNC(=O)c1cc(NC(=O)c2cc(NC(=O)OC)co2)co1 | inactive | > 10 | > 64 | > 64 | inactive | > 10 | inactive | > 64 | > 10 | > 10 | > 64 |
